Experiments:
[1] = molecular target: T1, α-2,6-sialyltransferase from rat liver (Rattus norvegicus, UniProt P13721); settings: each inhibitor tested at a concentration of 0.25 mM; cited from earlier work
T1 construct: host or cells: rat liver
T1 sequence (P13721 1-403): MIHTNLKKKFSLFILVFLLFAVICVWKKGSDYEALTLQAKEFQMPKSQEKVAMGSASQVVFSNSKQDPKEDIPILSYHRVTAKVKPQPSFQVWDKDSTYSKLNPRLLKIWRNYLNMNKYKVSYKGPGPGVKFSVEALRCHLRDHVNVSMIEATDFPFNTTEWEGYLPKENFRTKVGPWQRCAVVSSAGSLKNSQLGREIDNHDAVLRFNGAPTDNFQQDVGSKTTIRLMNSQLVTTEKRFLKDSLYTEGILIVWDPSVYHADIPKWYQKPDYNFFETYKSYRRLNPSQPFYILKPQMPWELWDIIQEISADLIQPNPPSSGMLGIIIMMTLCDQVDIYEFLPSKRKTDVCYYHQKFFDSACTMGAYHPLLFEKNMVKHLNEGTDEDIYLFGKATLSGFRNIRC

Δ89 hST6Gal-I = molecular target: T2, Δ89 hST6Gal-I (Homo sapiens, UniProt P15907); assay: Inhibition of sialidase activity of Δ89 hST6Gal-I by CTP; type: biochemical
T2 construct: Erythropoietin signal peptide (Epo) (N, cleaved yes); AP spacer (two amino acids) (N, cleaved yes); made in house; host or cells: HEK 293 cells (transient expression, secreted)
T2 sequence (P15907 90-406): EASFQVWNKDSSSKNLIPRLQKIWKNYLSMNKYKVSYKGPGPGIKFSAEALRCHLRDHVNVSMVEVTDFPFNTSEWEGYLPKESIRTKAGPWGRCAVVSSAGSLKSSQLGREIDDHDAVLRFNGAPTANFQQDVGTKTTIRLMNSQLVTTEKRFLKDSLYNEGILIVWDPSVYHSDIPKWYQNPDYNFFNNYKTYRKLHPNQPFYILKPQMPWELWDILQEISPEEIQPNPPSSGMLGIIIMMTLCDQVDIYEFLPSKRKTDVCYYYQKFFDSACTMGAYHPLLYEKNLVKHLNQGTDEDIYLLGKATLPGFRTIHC
Protocol: A highly galactosylated humanized monoclonal antibody IgG4 MAB was used in sialylation experiments. The reaction mixture contained IgG4 MAB (300 µg in 55 µL 35 mM sodium actetate/Tris buffer pH 7.0), the donor substrate CMP-NANA (150 µg in 50 µL water) and sialyltransferase (30 µg Δ89 hST6Gal-I in 20 mM potassium phosphate, 0.1 M NaCl, pH 6.5). The samples were incubated at 37°C for a defined time. To stop the reaction the samples were frozen at -20°C. For mass analysis 100 µL denaturing buffer (6 M guanidinium chloride) and 30 µL TCEP (= tris(2-carboxyethyl)phosphine; 0.1 mM, diluted in denaturing buffer) were added to the samples and the samples were incubated at 37°C for 1 h. The samples were buffered in electrospray medium [20% ACN (= acetonitrile), 1% FA (= […])] using pre-equilibrated illustra™ Nap5-Columns (GE-Healthcare). Samples were analyzed by electrospray ionization mass spectrometry and the content of G2+0SA, G2+1SA and G2+2SA N-glycans was determined. A Micromass Q-Tof Ultima and a Synapt G2 HDMS device (Waters UK) were used, the software used was MassLynx V 4.1. […]
The compound cytidine-5'-triphosphate (CTP) is a known potent inhibitor of sialyltransferases (Scudder PR & Chantler EN BBA 660 (1981) 136-141). […] At different times samples were taken and the content of G2+0SA, G2+1SA and G2+2SA was determined by mass spectrometry. […]

| degradation of G2+2SA caused by the sialidase activity (Δ89 hST6Gal-I; CTP 0.67 mM, compared to inhibitor-free conditions) | G2+2SA still present (Δ89 hST6Gal-I; after 72 h of incubation, CTP added after 7 h, final concentration 0.67 mM) | SMILES | inhibition of α-2,6-sialyltransferase [1] |
| --- | --- | --- | --- |
| – | – | Nc1ccn([C@@H]2O[C@H](COP(=O)(O)O)[C@@H](O)[C@H]2O)c(=O)n1 [5'-CMP, Cytidine monophosphate] | 71% |
| – | – | Nc1ccn([C@@H]2O[C@H](CO)[C@@H](O)[C@H]2OP(=O)(O)O)c(=O)n1 [2'-CMP] | 40% |
| – | – | Nc1ccn([C@@H]2O[C@H](CO)[C@@H](O)[C@H]2O)c(=O)n1 [Cytidine] | 70% |
| – | – | Nc1ccn([C@@H]2O[C@H](CO)[C@@H](OP(=O)(O)O)[C@H]2O)c(=O)n1 [3'-CMP] | 39% |
| significantly reduced | 73% | Nc1ccn([C@@H]2O[C@H](COP(=O)(O)OP(=O)(O)OP(=O)(O)O)[C@@H](O)[C@H]2O)c(=O)n1 [CTP, cytidine-5'-triphosphate] | – |

From patent EP3037527A1, “Sialyltransferase without CMP-dependent sialidase activity” (F. Hoffmann-La Roche AG, priority 2014, dated 2016)
